Measurements from patent US20230045421A1 (priority 2018, published 2023).

Each molecule was assayed on HBV rcDNA (assay: HepDE19 assay with bDNA quantitation of HBV rcDNA). Conditions: HepDE19 assay, inhibition of formation of relaxed circular DNA (rcDNA), bDNA quantitation; read-out: DE-19bDNA EC50.
Type: cell-based, hepatitis B virus
Outline: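 Compounds, top concentration 25 μM in 8-point duplicate series, were applied to Tet-free HepDE19 cultures for 7 days. Branched-DNA quantitation of HBV rcDNA against untreated wells gave EC50 and EC90 by 4-parameter fit. Viability (CC50) came from ATP luminescence on parallel plates incubated 4 days.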

In order of falling EC50:
1. CC(c1c[nH]c(=O)c2c(F)c(F)ccc12)N(C)C(=O)NCc1ccc(F)cc1 (single isomer, unassigned) [Compound 491, 1-(1-(7,8-Difluoro-1-oxo-1,2-dihydroisoquinolin-4-yl)ethyl)-3-(4-fluorobenzyl)-1-methylurea]  21 µM
2. CC(c1c[nH]c(=O)c2c(F)c(F)ccc12)N(C)C(=O)NCc1ccc(F)c(F)c1 (single isomer, unassigned) [Compound 489, 1-(1-(7,8-Difluoro-1-oxo-1,2-dihydroisoquinolin-4-yl)ethyl)-3-(3,4-difluorobenzyl)-1-methylurea]  19 µM
3. CC(c1c[nH]c(=O)c2c(F)c(F)ccc12)N(C)C(=O)NCc1cc(F)c(F)c(F)c1 (single isomer, unassigned) [Compound 493, 1-(1-(7,8-Difluoro-1-oxo-1,2-dihydroisoquinolin-4-yl)ethyl)-1-methyl-3-(3,4,5-trifluorobenzyl)urea]  15 µM
4. CC(c1c[nH]c(=O)c2cc(F)c(F)cc12)N(C)C(=O)NCc1ccc(F)c(Cl)c1 (single isomer, unassigned) [Compound 484, 3-(3-Chloro-4-fluorobenzyl)-1-(1-(6,7-difluoro-1-oxo-1,2-dihydroisoquinolin-4-yl)ethyl)-1-methylurea]  14 µM
5. CC(c1c[nH]c(=O)c2cc(F)c(F)cc12)N(C)C(=O)NCc1cc(F)c(F)c(F)c1 (single isomer, unassigned) [Compound 482, 1-(1-(6,7-Difluoro-1-oxo-1,2-dihydroisoquinolin-4-yl)ethyl)-1-methyl-3-(3,4,5-trifluorobenzyl)urea]  11 µM
6. CC(c1c[nH]c(=O)c2c(F)c(F)ccc12)N(C)C(=O)Nc1ccc2cc[nH]c2c1 (single isomer, unassigned) [Compound 498, 1-(1-(7,8-Difluoro-1-oxo-1,2-dihydroisoquinolin-4-yl)ethyl)-3-(1H-indol-6-yl)-1-methylurea]  11 µM
7. CC(c1c[nH]c(=O)c2cc(F)c(F)cc12)N(C)C(=O)NCc1ccc(F)c(F)c1 (single isomer, unassigned) [Compound 477, 1-(1-(6,7-Difluoro-1-oxo-1,2-dihydroisoquinolin-4-yl)ethyl)-3-(3,4-difluorobenzyl)-1-methylurea]  10 µM
8. CC(c1c[nH]c(=O)c2cc(F)c(F)cc12)N(C)C(=O)Nc1ccc2cc[nH]c2c1 (single isomer, unassigned) [Compound 485, 1-(1-(6,7-Difluoro-1-oxo-1,2-dihydroisoquinolin-4-yl)ethyl)-3-(1H-indol-6-yl)-1-methylurea]  9.9 µM
9. CC(c1c[nH]c(=O)c2c(F)c(F)ccc12)N(C)C(=O)NCc1ccc(F)c(Cl)c1 (single isomer, unassigned) [Compound 496, 3-(3-Chloro-4-fluorobenzyl)-1-(1-(7,8-difluoro-1-oxo-1,2-dihydroisoquinolin-4-yl)ethyl)-1-methylurea]  7.7 µM
10. CC(c1c[nH]c(=O)c2c(F)c(F)ccc12)N(C)C(=O)NCc1cc(F)c(F)c(F)c1 (single isomer, unassigned) [Compound 494, 1-(1-(7,8-Difluoro-1-oxo-1,2-dihydroisoquinolin-4-yl)ethyl)-1-methyl-3-(3,4,5-trifluorobenzyl)urea]  0.89 µM
11. CC(c1c[nH]c(=O)c2c(F)c(F)ccc12)N(C)C(=O)Nc1ccc(F)c(C(F)F)c1 (single isomer, unassigned) [Compound 503, 1-(1-(7,8-Difluoro-1-oxo-1,2-dihydroisoquinolin-4-yl)ethyl)-3-(3-(difluoromethyl)-4-fluorophenyl)-1-methylurea]  0.86 µM
12. CC(c1c[nH]c(=O)c2c(F)c(F)ccc12)N(C)C(=O)NCc1ccc(F)cc1 (single isomer, unassigned) [Compound 492, 1-(1-(7,8-Difluoro-1-oxo-1,2-dihydroisoquinolin-4-yl)ethyl)-3-(4-fluorobenzyl)-1-methylurea]  0.84 µM
13. CC(c1c[nH]c(=O)c2c(F)c(F)ccc12)N(C)C(=O)NCc1ccc(F)c(F)c1 (single isomer, unassigned) [Compound 490, 1-(1-(7,8-Difluoro-1-oxo-1,2-dihydroisoquinolin-4-yl)ethyl)-3-(3,4-difluorobenzyl)-1-methylurea]  0.78 µM
14. CC(c1c[nH]c(=O)c2cc(F)c(F)cc12)N(C)C(=O)Nc1ccc(F)c(C(F)F)c1 (single isomer, unassigned) [Compound 501, 1-(1-(6,7-Difluoro-1-oxo-1,2-dihydroisoquinolin-4-yl)ethyl)-3-(3-(difluoromethyl)-4-fluorophenyl)-1-methylurea]  0.73 µM
15. CC(c1c[nH]c(=O)c2cc(F)c(F)cc12)N(C)C(=O)NCc1cc(F)c(F)c(F)c1 (single isomer, unassigned) [Compound 481, 1-(1-(6,7-Difluoro-1-oxo-1,2-dihydroisoquinolin-4-yl)ethyl)-1-methyl-3-(3,4,5-trifluorobenzyl)urea]  0.53 µM
16. CC(c1c[nH]c(=O)c2cc(F)c(F)cc12)N(C)C(=O)NCc1ccc(F)c(F)c1 (single isomer, unassigned) [Compound 476, 1-(1-(6,7-Difluoro-1-oxo-1,2-dihydroisoquinolin-4-yl)ethyl)-3-(3,4-difluorobenzyl)-1-methylurea]  0.43 µM
17. CC(c1c[nH]c(=O)c2c(F)c(F)ccc12)N(C)C(=O)Nc1ccc2cc[nH]c2c1 (single isomer, unassigned) [Compound 499, 1-(1-(7,8-Difluoro-1-oxo-1,2-dihydroisoquinolin-4-yl)ethyl)-3-(1H-indol-6-yl)-1-methylurea]  0.3 µM
18. CC(c1c[nH]c(=O)c2cc(F)c(F)cc12)N(C)C(=O)NCc1ccc(F)c(Cl)c1 (single isomer, unassigned) [Compound 483, 3-(3-Chloro-4-fluorobenzyl)-1-(1-(6,7-difluoro-1-oxo-1,2-dihydroisoquinolin-4-yl)ethyl)-1-methylurea]  0.27 µM
19. CC(c1c[nH]c(=O)c2c(F)c(F)ccc12)N(C)C(=O)NCc1ccc(F)c(Cl)c1 (single isomer, unassigned) [Compound 497, 3-(3-Chloro-4-fluorobenzyl)-1-(1-(7,8-difluoro-1-oxo-1,2-dihydroisoquinolin-4-yl)ethyl)-1-methylurea]  0.26 µM
20. CC(c1c[nH]c(=O)c2cc(F)c(F)cc12)N(C)C(=O)Nc1ccc2cc[nH]c2c1 (single isomer, unassigned) [Compound 486, 1-(1-(6,7-Difluoro-1-oxo-1,2-dihydroisoquinolin-4-yl)ethyl)-3-(1H-indol-6-yl)-1-methylurea]  0.2 µM
21. CC(c1c[nH]c(=O)c2cc(F)c(F)cc12)N(C)C(=O)Nc1ccc(F)c(C(F)F)c1 (single isomer, unassigned) [Compound 502, 1-(1-(6,7-Difluoro-1-oxo-1,2-dihydroisoquinolin-4-yl)ethyl)-3-(3-(difluoromethyl)-4-fluorophenyl)-1-methylurea]  0.017 µM
22. CC(c1c[nH]c(=O)c2c(F)c(F)ccc12)N(C)C(=O)Nc1ccc(F)c(C(F)F)c1 (single isomer, unassigned) [Compound 504, 1-(1-(7,8-Difluoro-1-oxo-1,2-dihydroisoquinolin-4-yl)ethyl)-3-(3-(difluoromethyl)-4-fluorophenyl)-1-methylurea]  0.015 µM

Same assay, conditions: Hepatitis B virus, HepDE19, HepDE19 assay, inhibition of formation of relaxed circular DNA (rcDNA), bDNA quantitation; read-out: DE-19bDNA EC50

For `CC(c1c[nH]c(=O)c2cc(F)c(F)cc12)N(C)C(=O)NCc1ccc(F)cc1` (single isomer, unassigned) [Compound 478, 1-(1-(6,7-Difluoro-1-oxo-1,2-dihydroisoquinolin-4-yl)ethyl)-3-(4-fluorobenzyl)-1-methylurea], the EC50 was 1 µM.

Same assay, conditions: Hepatitis B virus, HepDE19, read-out: DE-19bDNA EC50 (μM), HepDE19 assay, inhibition of formation of relaxed circular DNA (rcDNA), bDNA quantitation

In order of rising EC50:
1. [2H]C([2H])([2H])N(C(=O)Nc1ccc(F)c(Cl)c1)C(C)c1c[nH]c(=O)c2cc(F)c(F)cc12 (single isomer, unassigned) [Compound 472, 3-(3-Chloro-4-fluorophenyl)-1-(1-(6,7-difluoro-1-oxo-1,2-dihydroisoquinolin-4-yl)ethyl)-1-(methyl-d3)urea]  0.007 µM
2. [2H]C([2H])([2H])N(C(=O)Nc1ccc(F)c(Cl)c1)C(C)c1c[nH]c(=O)c2c(F)c(F)ccc12 (single isomer, unassigned) [Compound 473, 3-(3-Chloro-4-fluorophenyl)-1-(1-(7,8-difluoro-1-oxo-1,2-dihydroisoquinolin-4-yl)ethyl)-1-(methyl-d3)urea]  0.01 µM
3. [2H]C([2H])([2H])N(C(=O)Nc1cccc(Cl)c1)C(C)c1c[nH]c(=O)c2c(F)c(F)ccc12 (single isomer, unassigned) [Compound 474, 3-(3-Chlorophenyl)-1-(1-(7,8-difluoro-1-oxo-1,2-dihydroisoquinolin-4-yl)ethyl)-1-(methyl-d3)urea]  0.015 µM
4. CC(NC(=O)Nc1ccc(F)c(Cl)c1)c1c[nH]c(=O)c2c(F)c(F)ccc12 (single isomer, unassigned) [Compound 500, 1-(3-Chloro-4-fluorophenyl)-3-(1-(7,8-difluoro-1-oxo-1,2-dihydroisoquinolin-4-yl)ethyl)urea]  3 µM
5. CC(c1c[nH]c(=O)c2cc(F)c(F)cc12)N(C)C(=O)N[C@@H](C)c1ccccc1 (single isomer, unassigned) [Compound 475]  6.1 µM
6. CC(c1c[nH]c(=O)c2c(F)c(F)ccc12)N(C)C(=O)N[C@H](C)c1ccccc1 (single isomer, unassigned) [Compound 488]  9 µM
7. CC(c1c[nH]c(=O)c2cc(F)c(F)cc12)N(C)C(=O)N[C@H](C)c1ccccc1 (single isomer, unassigned) [Compound 479]  9.4 µM
8. CC(c1c[nH]c(=O)c2c(F)c(F)ccc12)N(C)C(=O)N[C@@H](C)c1ccccc1 (single isomer, unassigned) [Compound 487]  23 µM
